Measured values taken from patent publication US20240317762A1, “PHTHALAZINONE-BASED PARP-1 INHIBITORS” (Oregon Health & Science University, priority 2021, published 2024).
Several values for one entry are separate records, joined by “and”; a condition that tells them apart may be missing. Equal entries are not always repeated.

What was measured:
D770A PARP-1 = D770A PARP-1 (Homo sapiens, UniProt P09874, D770A); experiment: catalytic activity of PARP-1 mutant expressed in HEK 293 cells, D770A; type: biochemical; conditions: 3 μM AZ0108
[1] = system: pan-nuclear γH2AX in HEK 293T cells; experiment: γH2AX immunofluorescence; type: cell-based, human
Protocol: HEK 293T or HEK 293 PARP-1 KO cells were seeded onto poly-d-lysine treated glass coverslips and treated with indicated concentrations of inhibitors for 18 hours. Cells were then washed with 1×PBS and fixed using 4% Sucrose/4% Paraformaldehyde in PBS for 20 minutes. After three washes in 1×PBS, cells were permeabilized in 0.3% Triton X-100 in PBS for 5 minutes followed by an additional three washes in 1×PBS. Coverslips were blocked in 3% BSA/0.1% Triton X-100 in PBS for 1 hour and then placed in primary anti-rabbit phosphoH2Ax antibody (1:200, Cell Signaling) overnight at 4° C. The next morning, cells were washed three times in 1×PBS and treated with blocking solution, 3% BSA/0.1% Triton X-100 in PBS, for 30 minutes before being placed in secondary anti-rabbit Alexa Fluor 647 (1:1000 Jackson Immuno) for 1 hour at RT. After three subsequent 1×PBS washes, coverslips were mounted using ProLong Gold antifade reagent with DAPI (Invitrogen). All immunofluorescence images were taken on a Zeiss ApoTome2 on Axiolmager and analyzed using Zeiss software. Mean intensity of the Alexa Fluor 647 signal was measured after imposing DAPI masks over the nucleus of each cell. All cells within a 20× image, was analyzed (˜3000 cells/condition).
Cell are stained for DAPI and γH2AX. Scale bar indicates 50 μm. FIG. 2B) Quantification of panel a. […] Error bars represent SEM. […] Error bars represent SEM. […] Error bars represent SEM.

HEK 293T cells = experiment: neutral comet assay; type: cell-based, human; conditions: 1 μM overnight, compared to bleomycin
Description: Cells were washed with 1×PBS, trypsinized, resuspended in a 1000,000 cells/ml 1×PBS solution, and mixed with molten agarose 1:2. The agarose mixture was placed onto CometSlides and the comet assay was completed following the manufacturer instructions (Trevigen, 4250-050-K). DNA was stained using SYBR Green and slides were imaged on a Zeiss ApoTome2 on Axiolmager using a 10× objective (>100 cells/condition).

HEK 293 PARP-1 KO cells = experiment: cell proliferation (MTT) assay in PARP-1 KO cells; type: cell-based, human; conditions: PARP-1 KO vs control HEK 293 cells, MTT 72 h
Description: Error bars represent SEM. […] Error bars represent SEM. […] Error bars represent SEM.

PARP-1 = PARP-1 (Homo sapiens, UniProt P09874); experiment: PARP-1 auto-PARylation activity assay in cells; type: cell-based
Protocol: Cells were washed with PBS, and lysed in RIPA buffer (50 mM Tris-HCl [pH 8.0], 150 mM NaCl, 0.1% SDS, 1% Triton X-100, 1× cOmplete™ protease inhibitors (Roche), and 1 μM Veliparib). […] Following quantification, 4× Laemmli sample buffer with 5% β-mercaptoethanol was added to 25-50 μg of protein.
Membrane blots were blocked with 5% milk-PBST for 1 h at RT, followed by incubation with a rabbit pan-ADP-ribose binding reagent (Cell Signaling), a rabbit PARP-1 antibody (Bethyl Laboratories), or a mouse b-actin antibody (Santa Cruz Biotechnology) for 2 h at RT, followed by incubation with HRP-conjugated secondary antibodies. […] Blots were imaged for chemiluminescent signal on a ChemiDoc MP system (BioRad). Statistical significance was established through multiple unpaired t-tests with nonlinear regression fit analysis.
FIGS. 5A-5F. […] An unlabeled competitor was added and the decrease in fluorescence polarization was measured across time. […] Error bars represent SEM. […] Error bars represent SEM. […] Cells were subsequently lysed using RIPA buffer, run out on SDS-PAGE, and probed for ADPr (Cell Signaling) and PARP-1 (Bethyl Laboratories). FIG. 5F) Quantification of western blot images. ADPr values are normalized to PARP-1 within each replicate and plotted as percentage compared to DMSO. Error bars indicate SEM (n=3).

[2] = system: Ewing sarcoma cell line EW-8; experiment: ES-8 viability screen (CellTiter-Glo); type: cell-based
Protocol: Cell viability was measured using the CellTiter-Glo (Promega, G7573) assay and read using an Envision (PerkinElmer) plate reader. Compound source plates (96-well) were prepared by solubilizing each drug in DMSO to a maximum concentration of 1-50 mM, then arraying samples in 10-point dose-response with 3-fold dilution. Positive and negative controls (staurosporine at 10 mM and DMSO, respectively) were added to the source plates. Drug was transferred from the source plate to the assay plate using a Biomek FX (Beckman Coulter) liquid handler equipped with a pin tool which transferred ˜100 nl into a final volume of 100 μl, resulting in ˜1000-fold dilution. At least two biological replicates (assay performed on different day with same drug plate and independent cell preparation) were obtained for each drug. To analyze the assay, the relative light unit signal in each well was first log 2 transformed, then normalized by subtracting the mean of the negative controls wells on each plate.
FIGS. 6A-6E. […] 0.1 μM ad-olaparib (chemical structure indicated in panel a) was added to the cells for 1 hour before undergoing a UV treatment for 5 minutes in cold PBS. Cells were lysed and sonicated in PBS (1% Triton X-100+1% SDS), clicked with TAMRA-azide and run out on SDS-PAGE. The gel was imaged for TAMRA and probed for PARP-1 (Bethyl Laboratories), and alpha-tubulin (X). FIGS. 6B, 6D) Quantification of western blot images. TAMRA or ADPr values are normalized to PARP-1 within each replicate and plotted as percentage compared to DMSO. Error bars indicate SEM (n=3-4). Statistical significance of off-rate calculated via multiple t-tests (p<0.05). […] Cells were subsequently treated with PARGi (10 μM) for 30 minutes, lysed using RIPA buffer, run out on SDS-PAGE, and probed for ADPr (Cell Signaling) and PARP-1 (Bethyl Laboratories). FIG. 6E) ES-8 cells were treated with indicated concentration of inhibitors for 72 hours before measuring cell viability using the CellTiter-Glo kit (Promega G7573). IC50 values were calculated using R statistical software.

[3] = system: Ser345 phosphorylation of Chk1 in HEK 293 cells; experiment: western blot analysis of phosphorylation of Chk1; conditions: HEK 293 cells, 18 hours

PARP-1, sequence (P09874 whole entry): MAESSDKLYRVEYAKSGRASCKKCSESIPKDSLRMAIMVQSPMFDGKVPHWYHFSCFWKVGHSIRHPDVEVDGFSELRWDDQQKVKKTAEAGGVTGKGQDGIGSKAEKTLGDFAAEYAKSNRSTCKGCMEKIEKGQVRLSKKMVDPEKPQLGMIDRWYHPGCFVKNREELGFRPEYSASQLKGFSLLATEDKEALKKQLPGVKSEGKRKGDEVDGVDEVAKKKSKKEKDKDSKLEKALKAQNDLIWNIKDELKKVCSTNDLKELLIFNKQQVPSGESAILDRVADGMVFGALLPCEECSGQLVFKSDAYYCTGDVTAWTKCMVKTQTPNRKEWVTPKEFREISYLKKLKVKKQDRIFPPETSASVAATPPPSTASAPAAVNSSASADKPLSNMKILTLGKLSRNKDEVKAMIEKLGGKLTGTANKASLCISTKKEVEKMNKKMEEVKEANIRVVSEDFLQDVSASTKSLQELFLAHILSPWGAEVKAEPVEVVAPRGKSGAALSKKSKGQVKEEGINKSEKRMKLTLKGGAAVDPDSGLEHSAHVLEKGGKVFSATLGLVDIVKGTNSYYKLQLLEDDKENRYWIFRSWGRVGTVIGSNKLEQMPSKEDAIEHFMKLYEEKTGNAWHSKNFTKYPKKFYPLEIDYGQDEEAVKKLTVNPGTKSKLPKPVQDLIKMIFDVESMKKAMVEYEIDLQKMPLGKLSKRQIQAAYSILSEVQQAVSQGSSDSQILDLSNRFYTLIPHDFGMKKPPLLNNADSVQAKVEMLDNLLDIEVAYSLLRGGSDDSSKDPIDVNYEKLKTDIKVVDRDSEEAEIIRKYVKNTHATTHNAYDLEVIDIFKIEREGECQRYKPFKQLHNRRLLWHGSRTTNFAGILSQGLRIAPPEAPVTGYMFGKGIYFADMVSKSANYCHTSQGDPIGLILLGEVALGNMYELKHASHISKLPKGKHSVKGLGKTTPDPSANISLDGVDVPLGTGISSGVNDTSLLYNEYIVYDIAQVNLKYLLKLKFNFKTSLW
D770A PARP-1, sequence (P09874 whole entry D770A): as the sequence (P09874 whole entry) above, with D770A counted along it

inhibition of D770A PARP-1 activity (D770A PARP-1): inhibited
EC50 (PARP-1; 30 min inhibitor, then PARG inhibitor PDD00017273, read-out: EC50 inhibiting PARP-1 PARylation in HEK 293 cells): 42.5 nM
IC50 (PARP-1; FIG. 5F, nonlinear regression, read-out: IC50 of dose curves, quantification of western blot (ADPr normalized to PARP-1)): 42.5 nM
EC50 ([2]; viability, 72 h): 20 nM and 20.9 nM
Substance: (S)-4-(difluoro(3-(6-methyl-3-(trifluoromethyl)-5,6,7,8-tetrahydro-[1,2,4]triazolo[4,3-a]pyrazine-7-carbonyl)phenyl)methyl)phthalazin-1(2H)-one [AZ0108]
pan-nuclear γH2AX induction ([1]; HEK 293T cells, 18 hours): dose-dependent increase
dependence of pan-nuclear γH2AX signal on PARP-1 ([1]; HEK293 control vs PARP-1 KO cells, 3 μM AZ0108): dependent on the presence of PARP-1
double-strand breaks (DSBs) (HEK 293T cells): only weakly generated DSBs
increase in the EC50 value on cell growth by KO of PARP-1 (HEK 293 PARP-1 KO cells): 43 fold
Fold Difference to Pip6 ([2]; ratio of EC50 values): 86
Ser345 phosphorylation of Chk1 [3]: induced Ser345 phosphorylation of Chk1
